Reference: patent publication US9580426B2, “Compounds that expand hematopoietic stem cells” (Novartis AG, priority 2008, dated 2017)

System: mPB CD34+ cells and CB CD34+ cells
Assay: Colony-Forming Units in Culture (CFU-C) Assay
Type: cell-based, human
Protocol: Colony-Forming Units in Culture (CFU-C) Assay: Mononuclear cells at 1000 per mL for cord blood 5 week and mPB 3 week culture and 100 cells per mL for C δ 3 week and mPB 1 week culture were added to MethoCult SF H4436, serum-free methylcellulose medium containing methylcellulose in Iscove's MDM, bovine serum albumin, 2-mercaptoethanol, L-glutamine, human transferring (iron saturated), recombinant human insulin, and recombinant human cytokines: stem cell factor, GM-CSF, IL-3, IL-6, G-CSF, and erythropoietin (StemCell Technologies). The MethoCult is supplemented with the following human recombinant cytokines: thrombopoietin, and Flt-3 ligand (R&D Systems), each at a final concentration of 50 ng/mL. After stirring, the mixture is divided into three 35-mm dishes. The dishes are incubated for 14 days at 37° C. in a humidified atmosphere of 5% CO2 in air. At the end of the incubation period, myeloid and erythroid colonies are counted under an inverted microscope at 40× magnification. CFU-C content of the expansion culture is calculated as follows: number of scored colonies per three dishes×total mononuclear cell number/input cell number. Up to one week, total mononuclear cells are determined by multiplying the number of cells per milliliter by the culture volume. From week 1 and on, the number of passages is also taken into account. Cultures treated with 4-(2-(2-(benzo[b]thiophen-3-yl)-9-isopropyl-9H-purin-6-ylamino)ethyl)phenol (compound 1, table 1; example 1) at a concentration of 1 micromolar, generated a greater than 10-fold increase in the number of colony forming cells after 21 days of culture of mPB CD34+ cells compared to vehicle. […] Cells treated with a 4-(2-(2-(benzo[b]thiophen-3-yl)-9-isopropyl-9H-purin-6-ylamino)ethyl)phenol (compound 1, table 1; example 1) generated more mixed colonies associated with a >10-fold increase in erythrocyte colonies, a >10-fold increase in granulocyte/macrophage colonies, and a >10-fold increase in macrophage colonies.

For `CC(C)n1cnc2c(NCCc3ccc(O)cc3)nc(-c3csc4ccccc34)nc21` [Example 1, 4-(2-(2-(benzo[b]thiophen-3-yl)-9-isopropyl-9H-purin-6-ylamino)ethyl)phenol], the “increase in colony forming units compared to control” value (1 micromolar, 1x10^3 CB CD34+ cells, 5 week culture) was “greater than 10 fold”, the “increase in the number of colony forming cells compared to vehicle” value (1 micromolar, after 21 days of culture of mPB CD34+ cells) was “greater than 10 fold” and the mixed granulocyte/erythrocyte/monocyte/macrophage colonies (not observed in colonies derived from untreated cultures) was “give rise mixed granulocyte/erythrocyte/monocyte/macrophage colonies”. The “increase in erythrocyte colonies” value (treated cells vs untreated) was “greater than 10 fold”, the “increase in granulocyte/macrophage colonies” value (treated cells vs untreated) was “greater than 10 fold” and the “increase in macrophage colonies” value (treated cells vs untreated) was “greater than 10 fold”.
